Measured values published in ChEMBL document CHEMBL2046440, “C-Aryl 5a-carba-β-d-glucopyranosides as novel sodium glucose cotransporter 2 (SGLT2) inhibitors for the treatment of type 2 diabetes” (Bioorg Med Chem, 2012).
pIC50: −log10 of the molar value. Activity calls are given as the source filed them. The rule behind the calls is not given here.

Legend:
[1] = target: T1, Sodium/glucose cotransporter 2 (Homo sapiens, UniProt P31639); assay: Inhibition of human SGLT2 expressed in CHO-K1 cells by [14C]AMG uptake assay; type: cell-based
T1 sequence (P31639 whole entry): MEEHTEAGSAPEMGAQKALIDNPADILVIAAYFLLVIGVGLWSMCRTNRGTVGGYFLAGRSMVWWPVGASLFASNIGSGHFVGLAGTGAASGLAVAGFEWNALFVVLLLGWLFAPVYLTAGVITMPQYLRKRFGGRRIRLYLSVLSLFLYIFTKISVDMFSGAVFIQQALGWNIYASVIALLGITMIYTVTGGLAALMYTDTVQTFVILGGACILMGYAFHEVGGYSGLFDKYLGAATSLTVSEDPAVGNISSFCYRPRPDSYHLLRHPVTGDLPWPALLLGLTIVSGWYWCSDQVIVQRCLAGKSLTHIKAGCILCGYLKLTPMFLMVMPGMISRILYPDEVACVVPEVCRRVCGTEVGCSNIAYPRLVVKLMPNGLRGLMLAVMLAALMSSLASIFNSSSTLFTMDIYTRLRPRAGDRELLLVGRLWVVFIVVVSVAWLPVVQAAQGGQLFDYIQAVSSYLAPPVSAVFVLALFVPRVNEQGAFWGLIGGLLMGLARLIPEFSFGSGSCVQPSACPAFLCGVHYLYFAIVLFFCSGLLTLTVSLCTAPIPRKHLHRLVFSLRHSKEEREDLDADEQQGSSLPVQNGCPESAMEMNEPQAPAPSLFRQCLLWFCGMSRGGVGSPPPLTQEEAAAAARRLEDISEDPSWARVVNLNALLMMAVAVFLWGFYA

Cytochrome P450 3A4 [2] = target: T2, Cytochrome P450 3A4 (Homo sapiens, UniProt P08684); assay: Inhibition of CYP3A4 using BFC substrate in which compound added to reaction mixture simultaneously with BFC substrate by fluorometric assay; type: ADME
Cytochrome P450 3A4 [3] = target: T2, Cytochrome P450 3A4; assay: Inhibition of CYP3A4 using BFC substrate in which compound added to reaction mixture before addition of BFC substrate by fluorometric assay; type: ADME
Mus musculus [4] = assay: Hypoglycemic effect in db/db mouse assessed as reduction in glucose level at 30 mg/kg, po measured 4 hrs post dose administered as single dose by hexokinase method; type: functional, organism-based; set-up: dose 30 mg/kg
Mus musculus [5] = assay: Hypoglycemic effect in db/db mouse assessed as reduction in glucose level at 30 mg/kg, po measured 8 hrs post dose administered as single dose by hexokinase method; type: functional, organism-based; set-up: dose 30 mg/kg
Mus musculus [6] = assay: Hypoglycemic effect in db/db mouse assessed as reduction in glucose AUC (0 to 8 hrs) at 30 mg/kg, po administered as single dose by hexokinase method relative to untreated control; type: functional; set-up: scale not given: the % may be the effect or the level left
[7] = (§1) Half life in db/db mouse at 10 mg/kg, po administered as single dose by LC-MS/MS system method; type: ADME, organism-based; set-up: dose 10 mg/kg, route oral; conditions: db/db, in vivo
[8] = Tmax in db/db mouse at 10 mg/kg, po administered as single dose by LC-MS/MS system method; type: ADME, organism-based; set-up: dose 10 mg/kg, route oral; conditions: in vivo
[9] = (§2) Cmax in db/db mouse at 10 mg/kg, po administered as single dose by LC-MS/MS system method; type: ADME, organism-based; set-up: dose 10 mg/kg, route oral; conditions: db/db, in vivo
[10] = AUC (infinity) in db/db mouse at 10 mg/kg, po administered as single dose by LC-MS/MS system method; type: ADME, organism-based; set-up: time infinity, dose 10 mg/kg, route oral; conditions: plasma
[11] = (§3) Apparent volume of distribution during terminal phase in db/db mouse at 10 mg/kg, po administered as single dose by LC-MS/MS system method; type: ADME, organism-based; set-up: dose 10 mg/kg, route oral; conditions: db/db, in vivo, read-out: Vz/F
[12] = Apparent oral clearance in db/db mouse at 10 mg/kg, po administered as single dose by LC-MS/MS system method; type: ADME, organism-based; set-up: dose 10 mg/kg, route oral; conditions: in vivo
Cytochrome P450 3A4 [13] = target: T2, Cytochrome P450 3A4; assay: Inhibition of CYP3A4 using BFC substrate by fluorometric assay; type: ADME; conditions: TDE = time-dependent effect
CYP3A4 = CYP3A4 (Homo sapiens, UniProt P08684); assay: in vitro; conditions: probe BFC
Description: Potency index, ratio of IC50 for CYP3A4 (unknown origin) using BFC substrate in which compound added to reaction mixture simultaneously with BFC substrate to IC50 for CYP3A4 using BFC substrate in which compound added to reaction mixture before addition of BFC substrate

Mus musculus [14] = assay: as §1; type: ADME, organism-based; set-up: dose 10 mg/kg, route oral; conditions: in vivo
Mus musculus [15] = assay: as §2; type: ADME, organism-based; set-up: dose 10 mg/kg, route oral; conditions: in vivo
Mus musculus [16] = assay: as §3; type: ADME, organism-based; set-up: dose 10 mg/kg, route oral; conditions: in vivo
Mus musculus [17] = assay: Hypoglycemic effect in db/db mouse assessed as reduction in glucose AUC (0 to 8 hrs) at 100 mg/kg, po administered as single dose by hexokinase method relative to untreated control; type: functional; set-up: scale not given: the % may be the effect or the level left

T2 sequence (P08684 whole entry): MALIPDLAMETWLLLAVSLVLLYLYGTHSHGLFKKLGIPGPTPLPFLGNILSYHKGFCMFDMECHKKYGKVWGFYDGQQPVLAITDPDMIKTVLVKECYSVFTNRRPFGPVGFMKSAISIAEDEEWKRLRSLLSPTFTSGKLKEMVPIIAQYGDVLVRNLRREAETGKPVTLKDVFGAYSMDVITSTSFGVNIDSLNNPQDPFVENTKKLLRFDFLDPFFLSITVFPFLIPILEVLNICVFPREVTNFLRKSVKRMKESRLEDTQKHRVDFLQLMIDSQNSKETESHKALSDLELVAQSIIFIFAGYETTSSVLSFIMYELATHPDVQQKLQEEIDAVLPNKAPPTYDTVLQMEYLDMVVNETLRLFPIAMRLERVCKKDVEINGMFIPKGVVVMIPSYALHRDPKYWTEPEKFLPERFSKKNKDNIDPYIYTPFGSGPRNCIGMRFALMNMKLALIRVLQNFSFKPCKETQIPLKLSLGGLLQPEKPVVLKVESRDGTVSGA
Sequence of CYP3A4 (P08684 whole entry): as above

pIC50 [1]	pIC50 (Cytochrome P450 3A4 [2])	pIC50 (Cytochrome P450 3A4 [3])	SMILES	other results
7.72	4.44	< 4.30	CCOc1ccc(Cc2ccc(CC)cc2)cc1[C@@H]1C[C@H](CO)[C@@H](O)[C@H](O)[C@H]1O	Activity (Mus musculus [4]): Active; Activity (Mus musculus [5]): Active; Activity (Mus musculus [6]): 42.6%; half-life [7]: 94.2 min; Tmax [8]: 15 min; Cmax [9]: 3680 ng/mL; AUC(0-inf) [10]: 6240 ng·h/mL; Vd/F [11]: 3.63 L/kg; CL/F [12]: 26.7 mL/min/kg
7.31	< 4.30	< 4.30	CCc1ccc(Cc2cccc([C@@H]3C[C@H](CO)[C@@H](O)[C@H](O)[C@H]3O)c2)cc1	
7.85			CCc1ccc(Cc2ccc(OC)c([C@]3(O)C[C@H](CO)[C@@H](O)[C@H](O)[C@H]3O)c2)cc1	
7.28			CCc1ccc(Cc2ccc(C)c([C@@H]3C[C@H](CO)[C@@H](O)[C@H](O)[C@H]3O)c2)cc1	
7.96	4.12	4.48	OC[C@H]1C[C@@H](c2cccc(Cc3ccc(C4CC4)cc3)c2)[C@H](O)[C@@H](O)[C@@H]1O	inhibition (INH) (Cytochrome P450 3A4 [13]): tde; IC50 shift (CYP3A4): 2.3
8.00	4.54	< 4.30	CCc1ccc(Cc2cc([C@]3(O)C[C@H](CO)[C@@H](O)[C@H](O)[C@H]3O)c(OC)cc2OC)cc1	
7.92	< 4.30	< 4.30	CCc1ccc(Cc2ccc(OC)c([C@@H]3C[C@H](CO)[C@@H](O)[C@H](O)[C@H]3O)c2)cc1	
8.07	4.59	4.39	CCc1ccc(Cc2cc([C@@H]3C[C@H](CO)[C@@H](O)[C@H](O)[C@H]3O)c(OC)cc2OC)cc1	IC50 shift (CYP3A4): 0.6
8.17			Cc1ccc([C@@H]2O[C@H](CO)[C@@H](O)[C@H](O)[C@H]2O)cc1Cc1ccc(-c2ccc(F)cc2)s1 [CANAGLIFLOZIN ANHYDROUS]	
7.00			CCc1ccc(Cc2cc([C@]3(O)C[C@H](CO)[C@@H](O)[C@H](O)[C@H]3O)ccc2OC)cc1	
8.08			CCc1ccc(Cc2cc([C@@H]3C[C@H](CO)[C@@H](O)[C@H](O)[C@H]3O)ccc2OC)cc1	
6.77			CCc1ccc(Cc2ccc(C)c([C@]3(O)C[C@H](CO)[C@@H](O)[C@H](O)[C@H]3O)c2)cc1	
7.14	< 4.30	< 4.30	COc1ccc(Cc2cccc([C@@H]3C[C@H](CO)[C@@H](O)[C@H](O)[C@H]3O)c2)cc1	
			CCOC(=O)OC[C@H]1O[C@@H](Oc2ccccc2Cc2ccc(OC)cc2)[C@H](O)[C@@H](O)[C@@H]1O [SERGLIFLOZIN ETABONATE]	Activity (Mus musculus [4]): Active; Activity (Mus musculus [5]): inactive; t1/2 (Mus musculus [14]): 49.2 min; Tmax [8]: 15 min; Cmax (Mus musculus [15]): 3360 ng/mL; AUC(0-inf) [10]: 2970 ng·h/mL; Vz/F (Mus musculus [16]): 3.315 L/kg
			COc1ccc(Cc2ccccc2O[C@@H]2C[C@H](CO)[C@@H](O)[C@H](O)[C@H]2O)cc1	Activity (Mus musculus [17]): 41.6%; t1/2 (Mus musculus [14]): 161 min; Tmax [8]: 15 min; Cmax (Mus musculus [15]): 1640 ng/mL; AUC(0-inf) [10]: 3070 ng·h/mL; Vz/F (Mus musculus [16]): 12.586 L/kg
8.00			CCOc1ccc(Cc2ccc(CC)cc2)cc1[C@]1(O)C[C@H](CO)[C@@H](O)[C@H](O)[C@H]1O	Activity (Mus musculus [4]): Active; Activity (Mus musculus [5]): inactive; Activity (Mus musculus [6]): 39.1%
